# Data reported in PMC7902834, “A rotary mechanism for allostery in bacterial hybrid malic enzymes” (Nature Communications, 2021).
# Tests used:
# Format in all cases: biochemical
# [1] = biological target: T1, MaeB (hybrid malic enzyme, Bd1833/MaeB) (Bdellovibrio bacteriovorus, UniProt Q6MM15); test: NADPH absorbance assay ([…] nm), dose response; parameters: gene mdh; full-length MaeB (Met1–Lys780), ligand-free MaeBapo
# [2] = biological target: T2, MaeB (hybrid malic enzyme, Bd1833/MaeB) (Bdellovibrio bacteriovorus, UniProt Q6MM14+Q6MM15); test: steady-state kinetics, NADPH absorbance; parameters: gene mdh; full-length MaeB (Met1–Lys780)
# Target sequence in this assay (Q6MM15 entry or part of it): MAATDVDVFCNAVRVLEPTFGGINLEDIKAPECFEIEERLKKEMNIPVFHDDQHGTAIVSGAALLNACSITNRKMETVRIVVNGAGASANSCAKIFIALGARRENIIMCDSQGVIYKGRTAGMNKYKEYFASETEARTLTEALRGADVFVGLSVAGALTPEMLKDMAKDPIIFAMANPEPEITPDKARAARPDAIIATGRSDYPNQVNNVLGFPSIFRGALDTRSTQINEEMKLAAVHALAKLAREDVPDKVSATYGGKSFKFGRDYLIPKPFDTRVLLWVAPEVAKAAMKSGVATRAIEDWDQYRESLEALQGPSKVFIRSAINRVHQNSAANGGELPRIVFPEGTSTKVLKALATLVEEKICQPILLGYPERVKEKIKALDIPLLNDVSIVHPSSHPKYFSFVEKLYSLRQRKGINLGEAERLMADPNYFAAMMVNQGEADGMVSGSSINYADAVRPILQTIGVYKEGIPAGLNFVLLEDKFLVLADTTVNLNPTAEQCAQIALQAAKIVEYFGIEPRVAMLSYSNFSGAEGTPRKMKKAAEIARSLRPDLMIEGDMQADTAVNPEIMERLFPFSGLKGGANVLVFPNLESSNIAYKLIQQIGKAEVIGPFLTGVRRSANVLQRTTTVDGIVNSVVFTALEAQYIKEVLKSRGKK
# Target sequence in this assay (Q6MM14 entry or part of it): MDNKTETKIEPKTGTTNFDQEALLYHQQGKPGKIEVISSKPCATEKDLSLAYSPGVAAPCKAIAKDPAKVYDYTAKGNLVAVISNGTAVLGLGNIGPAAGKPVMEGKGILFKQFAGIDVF
# [3] = biological target: T2, MaeB (hybrid malic enzyme, Bd1833/MaeB); test: NADPH absorbance assay ([…] nm), single concentration […]; parameters: gene mdh; full-length MaeB (Met1–Lys780); settings: read-out: % of uninhibited activity at 2 mM
# Target sequence in this assay (Q6MM15 entry or part of it): as the sequence (Q6MM15 entry or part of it) above
# Target sequence in this assay (Q6MM14 entry or part of it): as the sequence (Q6MM14 entry or part of it) above
# [4] = biological target: T1, MaeB (hybrid malic enzyme, Bd1833/MaeB); test: X-ray crystal structures of PTA domain and full-length; HPLC of co-purified ligand; enzyme inhibition kinetics (IC50 […]); parameters: gene mdh; full-length MaeB (Met1–Lys780) kinetics and crystal structure (6ZNG)
# [5] = biological target: T2, MaeB (hybrid malic enzyme, Bd1833/MaeB); test: NADPH absorbance assay ([…] nm), single concentration […] ([…] activity left); parameters: gene mdh; full-length MaeB and MaeBME (Met1–Ala434)
# Target sequence in this assay (Q6MM14 entry or part of it): as above
# Target sequence in this assay (Q6MM15 entry or part of it): as the sequence (Q6MM15 entry or part of it) above
# [6] = biological target: T2, MaeB (hybrid malic enzyme, Bd1833/MaeB); test: steady-state kinetics of reverse reductive carboxylation; parameters: gene mdh; full-length MaeB (Met1–Lys780)
# Target sequence in this assay (Q6MM15 entry or part of it): as above
# Target sequence in this assay (Q6MM14 entry or part of it): as the sequence (Q6MM14 entry or part of it) above
# T1 sequence (Q6MM14 entry or part of it): as above
# T1 sequence (Q6MM15 entry or part of it): as the sequence (Q6MM15 entry or part of it) above
smiles,measurement,setting,value
CC(C)(COP(=O)(O)OP(=O)(O)OC[C@H]1O[C@@H](n2cnc3c(N)ncnc32)[C@H](O)[C@@H]1OP(=O)(O)O)[C@@H](O)C(=O)NCCC(=O)NCCS [CoA],IC50,[1],20.2 µM
O=C(O)C[C@H](O)C(=O)O [L-malate],"steady-state kinetics, NADPH absorbance",[2],10000 M⁻¹ s⁻¹
CC(=O)OP(=O)(O)O [acetyl phosphate],activity at 2000 µM,[3],~50%
CC(=O)SCCNC(=O)CCNC(=O)[C@H](O)C(C)(C)COP(=O)(O)OP(=O)(O)OC[C@H]1O[C@@H](n2cnc3c(N)ncnc32)[C@H](O)[C@@H]1OP(=O)(O)O [acetyl-CoA],Ki,[4],0.7 µM
O=C(O)CC(=O)C(=O)O [oxaloacetate],"NADPH absorbance assay (340 nm), single concentration 2 mM (<10% activity left)",[5],"oxaloacetate inhibited both MaeB and MaeBME activities, suggesting this effector interacts directly with the ME domain"
CC(=O)C(=O)O [pyruvate],steady-state kinetics of reverse reductive carboxylation,[6],30 M⁻¹ s⁻¹
